Results taken from patent publication US20210353585A1, “METHODS AND COMPOSITIONS FOR TREATING LAMINOPATHIES AFFECTING SKELETAL OR CARDIAC MUSCLE” (CORNELL UNIVERSITY, priority 2018, published 2021).

Assays:
Lmna WT myofibers [1] = experiment: Cell viability MTT assay, Lmna WT; type: cell-based, mouse; conditions: wild-type myofibers; phleomycin 20 μg/ml pulses combined with NU7441 (2 μM) and/or KU55933 (2 μM); comparable to untreated Lmna KO
Experimental: (§1) Pharmacological treatments. For preliminary experiments, myoblasts were differentiated using the standard protocol and treated with pharmacological treatments starting at day 5 of differentiation. For chromatin protrusion studies, paclitaxel was administered to differentiated myotubes in two 24 hours bursts at day 4 and day 6-post differentiation with a 24 hour recovery in between. Myotubes were then fixed in 4% PFA at day 7 and stained with anti-lamin B and DAPI in order to quantify the percentage of myonuclei with chromatin protrusions. For long term studies using the cGAS reporter, myotubes were treated with 10 nM of paclitaxel starting at day 5 and then media was refreshed every day. […] For DNA damage induction and inhibitor experiments, cells were treated with 20 μg/ml of phleomycin for a two-hour pulse on Day 3, 4, and 5 of differentiation. Concurrently, cells were treated with NU7441 (2 μM), KU55933 (2 μM) starting at day 2 of differentiation through day 10 of differentiation. For induction of DN-KASH and DN-KASHext, cells were treated with 1 μM doxycycline.
(§2) MTT assay. Myoblasts, seeded in a 96-well plate and differentiated as previously described for 0, 5, or 10 days, were assayed for cell viability according to the manufacturer's instructions (Promega, CellTiter 96 Non-Radioactive Cell Proliferation Assay). Fresh differentiation media was added two hours prior to the addition of 15 μL MTT 3-(4,5-dimethylthiazol-2-yl)-2,5-diphenyltetrazolium bromide dye. After incubation for 3 hours in MTT dye, 100 uL of Stop Solution was added to solubilize the formazan product (appears purple). Following overnight incubation at 37° C. and 5% CO2, the absorbance of each well (measured at 590 nm) was analyzed using a microplate reader.

Lmna KO myofibers [2] = experiment: Cell viability MTT assay, Lmna KO; type: cell-based, mouse; conditions: phleomycin alone or in combination with NU7441 and/or KU55933
Experimental: as §1, §2

Lmna WT myofibers [3] = experiment: DNA damage by γH2AX foci per nucleus, Lmna WT; type: cell-based, mouse; conditions: for DNA damage (γH2AX foci): wild-type myofibers, phleomycin 20 μg/ml pulses combined with NU7441 (2 μM) and/or KU55933 (2 μM), comparable to untreated Lmna KO; for DNA damage (γH2AX foci per nucleus): Lmna WT cells, phleomycin with DNA-PK+ATM inhibition vs phleomycin alone
Experimental: as §1
Immunofluorescence staining of mouse cells and tissues. Cells were fixed in pre-warmed 4% PFA at the appropriate time point(s) and washed with PBS. Cells were blocked and permeabilized with a solution of 3% BSA, 0.1% Triton-X 100 and 0.1% Tween (Sigma) for 1 hour at room temperature. Cells were stained with primary antibodies diluted in blocking solution according to Table 4 at 4° C. overnight. Samples were washed with PBS and incubated for 1 hour at room temperature with 1:250 dilution of AlexaFluor antibodies (Invitrogen) and 1:1000 DAPI (Sigma). Single muscle fibers were stained using the same procedure in Eppendorf tube baskets with an increase in blocking solution Triton-X concentration to 0.25%.
Image analysis. Image sequences were analyzed using ZEN (Zeiss), ImageJ, or MATLAB (Mathworks) using only linear adjustments uniformly applied to the entire image region. Region of interest intensities were extracted using ZEN or ImageJ. To quantify cleaved caspase-3 (i.e. active) area and myofiber health, maximum intensity protections were generated, which were then blinded to the observer. Cleaved caspase-3 area was calculated by thresholding of the caspase-3 and myosin heavy chain fluorescent signal and expressing the cleaved caspase-3 signal relative to the myosin heavy chain signal. Myofiber contractions were scored based on a minimum of 6 random fields of view per replicate using a blinded analysis according to the scales provided in FIGS. 4A-4B. […] Protrusions lengths were both counted and measured by the presence of DAPI signal beyond the lamin B rim of the nucleus. Aspect ratio was quantified based on a thresholded lamin B rim to avoid the confounding factor of the DNA protrusions outside the body of the nucleus. Nuclear rupture was detected by an increase of the cytoplasmic NLS-GFP signal, or the localization of cGAS-mCherry to the nucleus. For better visualization of NLS-GFP cells many of the fluorescent single color image sequences were inverted. […] DNA damage was determined by counting H2AX foci and then binned based on foci number. If damage was so severe that individual foci could not be counted, these nuclei were placed in the >25 foci category. For Hsp90 quantification, average nuclear Hsp90 fluorescence intensity was determined from a single mid-nucleus z-plane image and normalized to the cytoplasmic intensity at two points immediately adjacent to the nucleus.

chick cardiac tissue = conditions: Cho et al. 2019; cited from earlier work
Lmna KO myofibers [4] = experiment: Nuclear envelope rupture, cGAS-mCherry reporter foci; type: cell-based, mouse; conditions: paclitaxel 10 nM starting day 5, vs DMSO
Excerpt: Each of the mutant myoblast lines were stably modified with lentiviral vectors to express the nuclear rupture reporter NLS-GFP (pCDH-CMV-NLS-copGFP-EF1-blastiS) and cGAS-mCherry (pCDH-CMV-eGAs^E225A/D227A-mCherry2-EF1-blastiS). cGAS is a cytosolic DNA binding protein; a cGAS mutant (E225A/D227A) with abolished enzyme activity and interferon production, but that still binds DNA (Civril et al., “Structural Mechanism of Cytosolic DNA Sensing by cGAS,” Nature 498:332-337 (2013), which is hereby incorporated by reference in its entirety) and serves as a nuclear envelope rupture reporter (Denais et al., “Nuclear Envelope Rupture and Repair During Cancer Cell Migration,” Science 352:353-358 (2016), which is hereby incorporated by reference in its entirety) was used.
Extended imaging using incubator microscope. […] Resulting images were analyzed using the Incucyte software, which performs fluorescence background subtraction using a top hat method and then subsequent thresholding. cGAS-mCherry cells were thresholded and then analyzed for increase in fluorescent foci over time to track the rate of increase in nuclear envelope rupture or damage. […]

Lmna KO myofibers [5] = experiment: Microharpoon assay of nuclear deformation; type: cell-based, mouse; conditions: Lmna KO myotubes, 50 nM paclitaxel for 24 hours vs DMSO
Experimental: For the microharpoon studies, myoblasts were seeded in 35 mm glass bottom dishes and differentiated as previously described, except without the addition of a Matrigel top coat to allow microharpoon access. A Sutter P-97 micropipette puller was used to create microharpoons from borosilicate glass rods (Sutter; OD: 1.0 mm, ID: 0.78, 10 cm length) with tip diameters of ≈1 μm. Day 4 myotubes (Lmna KO and wild-type) were treated for 24 hours with either 50 nM Paclitaxel or the corresponding 0.1% DMSO. The following day, the microharpoon assay was performed as described in Fedorchak et al., “Cell Microharpooning to Study Nucleo-Cytoskeletal Coupling,” Methods Mol. Biol. 1411:241-254 (2016), which is hereby incorproated by reference in its entirety, with slight modifications to the pull parameters to accommodate myotubes. The microharpoon was inserted ≈5-7 μm from the edge of the nucleus and pulled 15 μm at a rate of 1 μm/s. Pull direction was always orthogonal to the long axis of the myofiber. Images were acquired at 40× (+1.6×) every 5 seconds. Nuclear strain and centroid displacement were calculated using a custom-written MATLAB program. […]

Lmna KO myofibers [6] = experiment: Quantification of myonuclei with chromatin protrusions; type: cell-based, mouse; conditions: paclitaxel 50 nM starting day 4, read day 7, vs DMSO
Experimental: Pharmacological treatments. For preliminary experiments, myoblasts were differentiated using the standard protocol and treated with pharmacological treatments starting at day 5 of differentiation. For chromatin protrusion studies, paclitaxel was administered to differentiated myotubes in two 24 hours bursts at day 4 and day 6-post differentiation with a 24 hour recovery in between. Myotubes were then fixed in 4% PFA at day 7 and stained with anti-lamin B and DAPI in order to quantify the percentage of myonuclei with chromatin protrusions. For long term studies using the cGAS reporter, myotubes were treated with 10 nM of paclitaxel starting at day 5 and then media was refreshed every day. […]
Image analysis. Image sequences were analyzed using ZEN (Zeiss), ImageJ, or MATLAB (Mathworks) using only linear adjustments uniformly applied to the entire image region. […] To quantify cleaved caspase-3 (i.e. active) area and myofiber health, maximum intensity protections were generated, which were then blinded to the observer. Cleaved caspase-3 area was calculated by thresholding of the caspase-3 and myosin heavy chain fluorescent signal and expressing the cleaved caspase-3 signal relative to the myosin heavy chain signal. Myofiber contractions were scored based on a minimum of 6 random fields of view per replicate using a blinded analysis according to the scales provided in FIGS. 4A-4B. […]

Lmna H222P mice = conditions: Macquart et al. 2018; cited from earlier work

Molecule	myofiber viability (MTT) (Lmna WT myofibers [1])	myofiber viability (MTT) (Lmna KO myofibers [2])	DNA damage (γH2AX foci) (Lmna WT myofibers [3])	nuclear envelope rupture (chick cardiac tissue)	incidence of nuclear envelope rupture (cGAS-mCherry foci) (Lmna KO myofibers [4])	nuclear deformation in response to cytoplasmic force application (nuclear strain) (Lmna KO myofibers [5])	percentage of nuclei with chromatin protrusions (Lmna KO myofibers [6])	cardiac conduction defects (Lmna H222P mice)	DNA damage (γH2AX foci per nucleus) (Lmna WT myofibers [3])
phleomycin	loss of viability	did not further reduce viability	accumulation of DNA damage	–	–	–	–	–	–
Cc1ccc2c(c1)C(=O)C1(O)CCN(c3ccccc3)C1=N2 (stereo not shown) [blebbistatin]	–	–	–	rescued	–	–	–	–	–
CC(=O)O[C@H]1C(=O)[C@@]2(C)[C@H]([C@H](OC(=O)c3ccccc3)[C@]3(O)C[C@H](OC(=O)[C@H](O)[C@@H](NC(=O)c4ccccc4)c4ccccc4)C(C)=C1C3(C)C)[C@]1(OC(C)=O)CO[C@@H]1C[C@@H]2O [paclitaxel]	–	–	–	–	significantly reduced	significantly reduced nuclear deformation	significantly reduced the percentage of nuclei with chromatin protrusions	improve cardiac conduction defects	–
O=c1cc(-c2cccc3c2Sc2ccccc2S3)oc(N2CCOCC2)c1 [KU55933]	loss of viability	did not further reduce viability	accumulation of DNA damage	–	–	–	–	–	significant increase in DNA damage
O=c1cc(N2CCOCC2)oc2c(-c3cccc4c3sc3ccccc34)cccc12 [NU7441]	loss of viability	did not further reduce viability	accumulation of DNA damage	–	–	–	–	–	significant increase in DNA damage
